Measurements reported in patent US5792444A, “Labeled chemotactic peptides to image focal sites of infection or inflammation” (The General Hospital Corporation, priority 1993, dated 1998).
Read-outs that look alike come from different tables or passages of the source. *1 amine or outer side, *2 acyl side, *3 side chain or, on linkers, in order; H or OH if unused. Where a SMILES comes first, the peptide text is derived from it. Side-chain parts run from the residue outwards. [ ]: non-standard residue; d: D form. The star is where a group is joined. Isobutyloxycarbonyl = CC(C)COC(=O)*; Met(O) = CS(=O)CC[C@H](N)C(=O)O; Cha = N[C@@H](CC1CCCCC1)C(=O)O; HYNIC = NNc1ccc(C(=O)*)cn1; Nle = CCCC[C@H](N)C(=O)O; CO = O=C([*:1])[*:2]; NHPh = c1ccc(N*)cc1; NHiPr = CC(C)N*; For = O=C*

How the values were obtained:
[1] = system: neutrophils / human umbilical vein endothelial cells; experiment: cells; format: cell-based
Description: (§1) The unconjugated peptide iBoc-MLFK was evaluated in a neutrophil-endothelial cell adhesion assay. In this assay, neutrophils (5×10^5) labeled with 5-carboxyfluorescein diacetate were added into wells of a 48 well dish containing confluent human umbilical vein endothelial cells. The iBoc-MLFK peptide was added at a concentration of 10 μM 10 min prior to stimulation of neutrophils with 30 nM ForMLF. Percent adhesion was determined by washing off unattached neutrophils after an incubation period of 25 minutes. This peptide inhibited adhesion by 66% at this concentration. Subsequently, concentrations between 0.1-3.0 μM were examined. […] Inhibition of adhesion would reduce the infiltration of leukocytes, such as neutrophils, to a diseased site, thereby limiting the tissue damage associated with inflammation.
(§2) The procedure of Example 5 was repeated for additional CP's within the scope of the present invention. The results are shown in Table I. In the table, MPO is myeloperoxidase assay, a "-" sign means there was no effect at 30 μM, a "+" sign means there was a positive effect at 30 μM, and "N.T." means "Not

[2] = system: neutrophils / human umbilical vein endothelial cells; experiment: Adhesion agonist (neutrophil-endothelial cell adhesion assay); format: cell-based; details: read-out: Adhesion Agonist EC50
Description: as §1, §2

[3] = target: T1, neutrophils (Homo sapiens, UniProt P21462); experiment: Binding (Table I, Cell Biology Data); details: for Binding EC50: class symbol
T1 sequence (P21462 1-350): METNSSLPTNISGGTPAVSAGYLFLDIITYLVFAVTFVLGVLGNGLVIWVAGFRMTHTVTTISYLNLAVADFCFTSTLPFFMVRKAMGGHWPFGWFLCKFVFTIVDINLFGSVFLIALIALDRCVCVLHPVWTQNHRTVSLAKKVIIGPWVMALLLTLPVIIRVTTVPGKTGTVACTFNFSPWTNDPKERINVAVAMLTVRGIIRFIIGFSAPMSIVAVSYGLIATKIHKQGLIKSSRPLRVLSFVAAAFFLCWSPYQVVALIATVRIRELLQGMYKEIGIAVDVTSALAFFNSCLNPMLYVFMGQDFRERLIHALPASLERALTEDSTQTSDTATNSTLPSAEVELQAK
Excerpt: Three non-DTPA derivatized peptides were included in the assay for comparison.

[4] = system: E. coli infection; parameters: species or system New Zealand white rabbits; details: rabbit, in vivo
Description: Male New Zealand white rabbits weighing 2.2-3.0 kg were used in all studies. E. coli from a single clinical isolate were grown overnight on trypticase soy agar plates and individual colonies were diluted with sterile normal saline to produce a turbid suspension containing approximately 1×10^11 organisms/0.5 mL (determined with a spectrophotometer). A 0.5 mL inoculum of the bacterial suspension was injected deep in the left thigh muscle of the rabbits.
Twenty four hours after inoculation, rabbits with gross swelling in the infected thigh were injected with the radiopharmaceuticals through a lateral ear vein. Six animals were injected with a mixture of 1 mCi ^99m Tc-HP (>5,000 mCi/μMole) and 0.05 mCi of ^111 In labeled white blood cells.
At 3, 6, and 18 hours after injection of the radiolabeled reagents, the animals were anesthetized with ketamine/xylazine (15.0 and 1.5 mg/kg) and anterior whole body scintigrams were acquired using a large field of view gamma camera equipped with a parallel hole medium energy collimator interfaced to a dedicated computer system (Technicare Gemini 700, Technicare 560, Solon, Ohio). ^111 In and ^99m Tc images were acquired simultaneously in dual photon mode with 15% windows centered on photopeaks at 140 KeV for ^99m Tc and 247 KeV for ^111 In. At 3 and 6 hours after injection, two sets of images were acquired for a preset time of 5 minutes/view. At 18 hours after injection, the imaging time was extended to 10 minutes per view. Regions of interest were drawn over the area of infection and the contralateral normal muscle (background). The results were expressed as target-to-background ratios (infected thigh/contralateral thigh).
After acquiring the final images, the animals were sacrificed with an overdose of sodium pentobarbital and biodistribution was determined. Samples of blood, heart, lung, liver, spleen, kidney, adrenal, stomach, GI tract, testes, bone, bone marrow, normal muscle, infected muscle, and pus were weighed and radioactivity was measured with a well type gamma counter (LKB model #1282, Wallac Oy, Finland). To correct for radioactive decay and permit calculation of the concentration of radioactivity in each organ as a fraction of the administered dose, aliquots of the injected doses were counted simultaneously. The results were expressed as percent injected dose per gram (%I.D./g), infected to normal muscle ratios, and pus to normal muscle ratios.
To determine the nature of the radioactivity in the circulation and at the site of infection, the blood and pus samples were fractionated by gradient centrifugation on Lymphoprep. The plasma was further fractionated on a column of Sephadex G-100 (1.0×25 cm) eluted with PBS, pH 7.4. […]

[5] = target: T2, chemoattractant receptor on human PMN's (Homo sapiens, UniProt P21462); experiment: For-MLF receptor binding assay (For-ML[3H]F displacement); details: 15 nM For-ML[3H]F, 45 min, 24° C.
T2 construct: endogenous in cells; host or cells: isolated human PMN's (neutrophils) from healthy volunteers, intact cells
T2 sequence (P21462 1-350): T1 sequence (P21462 1-350)
Description: Following incubation, the cells were filtered onto glass fiber discs (Whatman GF/C; Whatman, Inc., Clifton, N.J.) which were then washed with 20 mL of ice cold incubation buffer. The filters were placed in scintillation vials with 10 mL of Safety-Solve (Research Products International Corp., Mt. Prospect, Ill.) and radioactivity was measured by liquid scintillation spectroscopy. Specific binding is defined as total binding minus nonspecific binding. Nonspecific binding is the amount of residual bound radioactivity in the presence of 10 μM unlabeled For-MLF.
The chemical purity of the final product was evaluated by TLC, HPLC, UV spectroscopy, mass spectroscopy, and amino acid analysis. Determinations of the EC50 's for binding to the chemoattractant receptor on human PMN's and superoxide generation were performed as described in Pike, M. C., and Snyderman, R., Methods Enzymol. 162:236-245 (1988); Pike, M. C., et al., Blood 67:909-913 (1986); and Fischman, A. J., et al., J. Nucl. Med. 32:483-491 (1991).

[6] = target: T1, neutrophils; experiment: Free radicals agonist (neutrophil free radical chemiluminescence); format: cell-based; details: class symbol
[7] = target: T1, neutrophils; experiment: Free radicals antagonist (inhibition of ForMLF stimulated free radical chemiluminescence); format: cell-based
[8] = read-out: Adhesion Antagonist IC50

## CC(C)C[C@H](NC(=O)OCC1c2ccccc2-c2ccccc21)C(=O)O [Example 11, FMOC-Leucine]
[1]; Homo sapiens, read-out: Adhesion Antagonist IC50
  IC50: 20 µM

## CSCC[C@H](NC(=O)c1ccc[nH]1)C(=O)N[C@@H](CC(C)C)C(=O)N[C@@H](Cc1ccccc1)C(=O)O [Example 25, Pyrrole-M--L--F]
[1]; [8]
  IC50: 6.2 µM

## NNc1ccc(C(=O)O)cn1 [Example 26, Hynic]
[2]; Homo sapiens
  EC50: > 30 µM

## CSCC[C@H](NC(=O)NC(C)C)C(=O)N[C@@H](CC(C)C)C(=O)N[C@@H](Cc1ccccc1)C(=O)N[C@@H](CCCCNC(=O)[C@H](CC(=O)O)NC(=O)c1ccc(NN)nc1)C(=O)O [Example 29, i-proplyurea-MLF--Lys--Asp--SHNH] ({NHiPr-CO}-MLFK([Asp-HYNIC])-OH; C-terminus assumed)
[1]; [8]
  IC50: > 30 µM
[2]
  EC50: 0.73 µM

## CSCC[C@H](NC(=O)NC(C)C)C(=O)N[C@@H](CC(C)C)C(=O)N[C@@H](Cc1ccccc1)C(=O)NCCCNC(=O)c1ccc(NN)nc1 [Example 30, N-i-propylurea-MLF-propanediamine-SHNH]
[1]; [8]
  IC50: > 30 µM
[2]; class symbol
  EC50: > 30 µM

## CSCC[C@H](NC(=O)NC(C)C)C(=O)N[C@@H](CC(C)C)C(=O)N[C@@H](Cc1ccccc1)C(=O)NCCCNC(=O)[C@H](CC(=O)O)NC(=O)c1ccc(NN)nc1 [Example 31, i-propylurea-MLF-n-propyldiamine-Asp--SHNH]
[1]; [8]
  IC50: > 30 µM
[2]
  EC50: 1.1 µM

## CSCC[C@H](NC(=O)Nc1ccccc1)C(=O)N[C@@H](CC(C)C)C(=O)N[C@@H](CC1CCCCC1)C(=O)O [Example 34] ({NHPh-CO}-Met-Leu-[Cha]-OH)
[2]; class symbol
  EC50: < 30 µM

## CSCC[C@H](NC(=O)OCC(C)C)C(=O)N[C@@H](CC(C)C)C(=O)N[C@@H](Cc1ccccc1)C(=O)N[C@@H](CCCCN)C(N)=O [Example 41, iBoc--MLFK] (Isobutyloxycarbonyl-MLFK-NH2)
[1]
  IC50: ~14 µM

## CCCC[C@H](NC(=O)OCC(C)C)C(=O)N[C@@H](CC(C)C)C(=O)N[C@@H](Cc1ccccc1)C(=O)N[C@@H](CCCCN)C(N)=O [Example 49, iBoc--Nle--LFK] (Isobutyloxycarbonyl-[Nle]LFK-NH2)
[3]
  Binding EC50: ? --

## CC(C)COC(=O)N[C@@H](CC[S+](C)[O-])C(=O)N[C@@H](CC(C)C)C(=O)N[C@@H](Cc1ccccc1)C(=O)N[C@@H](CCCCN)C(N)=O (stereo partly shown) [Example 50, iBoc--M(O)--LFK] (Isobutyloxycarbonyl-[Met(O)]LFK-NH2)
[3]
  Binding EC50: ? --

## CSCC[C@H](NC=O)C(=O)N[C@@H](CC(C)C)C(=O)N[C@@H](Cc1ccccc1)C(=O)O [Example 59, N-formyl-methionyl-leucyl-phenylalanine, reference compound]
[2]
  EC50: 0.007 µM

## CCCCNC(=O)N[C@@H](CCSC)C(=O)N[C@@H](CC(C)C)C(=O)N[C@@H](Cc1ccccc1)C(=O)O [Example 65, N-butylurea-MLF]
[2]; class symbol
  EC50: < 30 µM

## CCCCC(=O)N[C@@H](CCSC)C(=O)N[C@@H](CC(C)C)C(=O)N[C@@H](Cc1ccccc1)C(=O)O [Example 79, n-butyl-amidyl-MLF]
[1]; [8]
  IC50: 9.6 µM
[2]; class symbol
  EC50: > 30 µM

## CSCC[C@H](NC(N)=O)C(=O)N[C@@H](CC(C)C)C(=O)N[C@@H](Cc1ccccc1)C(=O)O [Example 98, N-hydrourea-MLF]
[2]
  EC50: 0.62 µM

## CSCC[C@H](NC=O)C(=O)N[C@@H](CC(C)C)C(=O)N[C@@H](Cc1ccccc1)C(=O)N[C@@H](CCCCNC(=O)c1ccc(NN)nc1)C(=O)O [Example 99mTc-HP, Formyl-Methionyl-Leucyl-Phenylalanyl-Lysyl-hydrazininicotinamide, metal not drawn] (For-MLFK(HYNIC)-OH)
[4]
  binding to red blood cells: < 2%
  circulating radioactivity associated with leukocytes: ~ 25%
  plasma radioactivity not bound to WBC's eluting with apparent molecular weight of 150,000 (IgG fraction): > 95%
  radioactivity of pus associated with WBC's: approximately 90%

## CCCC[C@H](NC=O)C(=O)N[C@@H](CC(C)C)C(=O)N[C@@H](Cc1ccccc1)C(=O)O [For-NleLF, N-formyl-norleucyl-leucyl-phenylalanine] (For-[Nle]-Leu-Phe-OH)
[5]
  EC50: 0.3 µM

## Isopropylurea-FLFLF--Lys--Lys--SHNH [Example 18]
[6]
  EC50: > 30 µM
[7]
  IC50: 29.5 µM
[3]
  EC50: 15.7 µM

## Leu--Ala--SHNH--Boc [Example 8]
[6]
  EC50: > 30 µM
[3]
  EC50: > 100 µM

## N(N-isopropylurea-FLFLF-Propanediamine-SPNH [Example 94]
[6]
  EC50: > 30 µM
[7]
  IC50: 5 µM
[3]
  EC50: 0.42 µM
[2]; class symbol
  EC50: > 30 µM

## iBoc--MLF--S--SPNH [Example 39]
[6]
  EC50: > 30 µM
[1]; [8]
  IC50: > 30 µM
[7]
  IC50: 3 to 3.5 µM
[3]
  EC50: 0.6 to 22 µM

## iBoc--MLF--SPNH [Example 37]
[6]
  EC50: > 30 µM
[1]; [8]
  IC50: > 30 µM
[7]
  IC50: 10 to 30 µM
[3]
  EC50: 0.15 to 5 µM
